According to PubChem BioAssay AID1963837 (Molecular Pharmacology Branch, DTP, NCI, 2024):

Tested on: 843126-344-R-J1-PDC complex spheroid viability
Experiment: Anticancer human tumor 843126-344-R-J1-PDC patient-derived melanoma cell line growth inhibition [POLQ]
Settings: for viability, T/C: stronger effect = lower value
Experimental: Multicellular complex tumor spheroid response to Polymerase (POL) inhibitors (novobiocin, ART-558, RP6685) in combination with a variety of drugs and investigational agents in selected tumor cell lines
The POL inhibitors (novobiocin, ART-558, and RP6685) were evaluated both individually and in combination with standard of care and investigational anticancer small molecules within a complex spheroid model of solid tumors. . Complex spheroids include a stromal component modeled by human endothelial cells (HUVEC) and fibroblasts modeled by human mesenchymal stem cells (MSCs). The concentration ranges selected for each drug and investigational agent were based upon clinically achievable concentrations if the clinical Cmax of the agent was known.
Compounds. The drugs and investigational agents: novobiocin (NSC847541), ART-558 (NSC835418), RP-6685 (NSC848927), peposertib (NSC802822), ceralasertib (NSC780249), elimusertib (NSC800525), camonsertib (NSC841442), AZD-1390 (NSC803789), olaparib (NSC753686), talazoparib (NSC767125), rucaparib (NSC756644), sotorasib (NSC818433), MRTX-1133 (NSC836407), SN-38 (NSC673596), topotecan (NSC609699), epotoside (NSC141540), doxorubicin (NSC123127), gemcitabine (NSC613327), 5-fluorouracil (NSC19893), paclitaxel (NSC125973), vemurafenib (NSC761431), MSA-2 (NSC828583), SN-011 (NSC837082), adavosertib (NSC754352), prexasertib (NSC758257), carboplatin (NSC241240) and oxaliplatin (NSC266046), were obtained from the National Cancer Institute (NCI) Developmental Therapeutics Program Chemical Repository (21). The FDA-approved anticancer drug set is available from the Developmental Therapeutics Program at https://dtp.cancer.gov/organization/dscb/obtaining/. […] The stock solutions were prepared in dimethyl sulfoxide (DMSO, Sigma-Aldrich, St. Louis, MO, cat. D2650), except for the platinum compounds which were prepared in saline (Quality Biological, Gaithersburg, MD, cat. 114-055-101), at 800-fold the tested concentration and stored at -70 degrees C prior to their use. All drugs and investigational agents were tested over a range starting from a high concentration at or near the clinical Cmax and decreasing in half-log increments. If the clinical Cmax for an agent had not been determined, the highest concentration tested was 10 microM, except for SN-38, which was tested at a high concentration of 1 microM.
Cell Culture. All cells were maintained in an incubator at 37 degrees C and 5% CO2 with 95% humidity. The PDC lines were cultured according to standard operating procedures established by the NCI PDMR (https://pdmr.cancer.gov). Table 3 of the manuscript, lists the cell lines along with the number of the three cell types plated to form the mct-spheroids and media for tumor cell growth. After thawing, all PDC lines, except 997537-175-T-J1-PDC and 415267-285-R-J2-PDC, were cultured in Matrigel-coated flasks prepared with a working solution of 1X Ham's F-12 nutrient mix, without supplementation (Thermo Fisher Scientific, cat. 11765054), 100 U/mL penicillin-streptomycin (Thermo Fisher Scientific, cat. 15140122), and 2.5% Matrigel (Corning Inc., Corning, NY, cat. 354248) for the first three passages. The two PDC lines 997537-175-T-J1-PDC and 415267-285-R-J2-PDC were cultured on uncoated flasks. The 857933-349-R-J2-PDC line was cultured in 6C/Colon 1B media containing advanced DMEM/F-12 (Thermo Fisher Scientific, cat. 12634028), 10 mM HEPES (Thermo Fisher Scientific, cat. 15630080), 1X GlutaMAX supplement (Thermo Fisher Scientific, cat. 35050061), 0.1 mg/mL primocin (InvivoGen, San Diego, CA, cat. ant-pm-2), 10% defined fetal bovine serum, heat inactivated (HyClone Laboratories Inc., Logan, UT, cat. SH30070.03HI), 50% L-WRN conditioned media (ATCC, cat. CRL-3276), 1.25 mM N-Acetyl-L-cysteine (Sigma-Aldrich, cat. A9165), 10 mM nicotinamide (Sigma-Aldrich, cat. N0636), 1X B-27 supplement (Thermo Fisher Scientific, cat. 17504044), 1X N-2 supplement (Thermo Fisher Scientific, cat. […]
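Wherever viability, T/C is given: spheroids exposed to drugs for seven days before readout.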

**Q.** With `Cc1cccc(N(C)C(=O)C2C(O)CCN2c2nc(C)cc(C(F)(F)F)c2C#N)c1` (configuration not stated) as the molecule, how does the viability, T/C (compound 0.316 µM) read?
**A.** The viability, T/C was 100% [middle of 12 runs].

**Q.** And the viability, T/C (compound 1 µM)?
**A.** Its viability, T/C is 97.7% [middle of 12 runs].

**Q.** What about the viability, T/C (compound 10 µM) of the same molecule?
**A.** Its viability, T/C is 95.7% [middle of 12 runs].

**Q.** And the IC50 (compound alone, run of 01/08/2024)?
**A.** The IC50 was over 10 µM.

**Q.** What about the IC50 (compound alone, run of 01/19/2024) of the same molecule?
**A.** The IC50 was over 10 µM.

**Q.** `CCc1cc2c(N3CCc4c(cc(Cn5ccnc5)cc4-c4cn(C)nc4C(F)(F)F)C3=O)cc(C)nc2c(OC)n1` + Nc1ccc(C#CCN(C(=O)Cc2ncc(C(F)(F)F)cc2C(F)(F)F)c2ccc(F)cc2)nn1 was tested. Which IC50 (curve of first compound, second compound 0.0316 µM) did it give?
**A.** Its IC50 is over 10 µM.

**Q.** What about the IC50 (curve of first compound, second compound 0.1 µM) of the same molecule?
**A.** Its IC50 is over 10 µM.

**Q.** And the IC50 (curve of first compound, second compound 0.316 µM)?
**A.** The IC50 was over 10 µM.

**Q.** And the IC50 (curve of first compound, second compound 1 µM)?
**A.** Its IC50 is over 10 µM.

**Q.** What about the IC50 (curve of first compound, second compound 3.16 µM) of the same molecule?
**A.** The IC50 was over 10 µM.

**Q.** What about the IC50 (curve of first compound, second compound 10 µM) of the same molecule?
**A.** Its IC50 is over 10 µM.

**Q.** And the viability, T/C (second compound 0.0316 µM, first compound 0.0316 µM)?
**A.** Its viability, T/C is 96.9%.

**Q.** What about the viability, T/C (second compound 0.0316 µM, first compound 0.1 µM) of the same molecule?
**A.** Its viability, T/C is 95.3%.

**Q.** What about the viability, T/C (second compound 0.0316 µM, first compound 0.316 µM) of the same molecule?
**A.** Its viability, T/C is 82%.

**Q.** And the viability, T/C (second compound 0.0316 µM, first compound 1 µM)?
**A.** Its viability, T/C is 80.7%.

**Q.** What about the viability, T/C (second compound 0.0316 µM, first compound 3.16 µM) of the same molecule?
**A.** The viability, T/C was 73.2%.

**Q.** What about the viability, T/C (second compound 0.0316 µM, first compound 10 µM) of the same molecule?
**A.** Its viability, T/C is 58.8%.

**Q.** And the viability, T/C (second compound 0.1 µM, first compound 0.0316 µM)?
**A.** The viability, T/C was 97.5%.

**Q.** And the viability, T/C (second compound 0.1 µM, first compound 0.1 µM)?
**A.** The viability, T/C was 99.5%.

**Q.** And the viability, T/C (second compound 0.1 µM, first compound 0.316 µM)?
**A.** Its viability, T/C is 89.1%.

**Q.** What about the viability, T/C (second compound 0.1 µM, first compound 1 µM) of the same molecule?
**A.** Its viability, T/C is 82%.

**Q.** And the viability, T/C (second compound 0.1 µM, first compound 3.16 µM)?
**A.** Its viability, T/C is 79.7%.

**Q.** What about the viability, T/C (second compound 0.1 µM, first compound 10 µM) of the same molecule?
**A.** The viability, T/C was 58.2%.

**Q.** What about the viability, T/C (second compound 0.316 µM, first compound 0.0316 µM) of the same molecule?
**A.** The viability, T/C was 87.5%.

**Q.** And the viability, T/C (second compound 0.316 µM, first compound 0.1 µM)?
**A.** The viability, T/C was 97.4%.

**Q.** And the viability, T/C (second compound 0.316 µM, first compound 0.316 µM)?
**A.** The viability, T/C was 77.6%.

**Q.** What about the viability, T/C (second compound 0.316 µM, first compound 1 µM) of the same molecule?
**A.** The viability, T/C was 84.6%.

**Q.** And the viability, T/C (second compound 0.316 µM, first compound 3.16 µM)?
**A.** Its viability, T/C is 76.8%.

**Q.** What about the viability, T/C (second compound 0.316 µM, first compound 10 µM) of the same molecule?
**A.** The viability, T/C was 66.7%.

**Q.** And the viability, T/C (second compound 1 µM, first compound 0.0316 µM)?
**A.** Its viability, T/C is 104%.

**Q.** What about the viability, T/C (second compound 1 µM, first compound 0.1 µM) of the same molecule?
**A.** The viability, T/C was 94%.

**Q.** And the viability, T/C (second compound 1 µM, first compound 0.316 µM)?
**A.** The viability, T/C was 80.3%.

**Q.** What about the viability, T/C (second compound 1 µM, first compound 1 µM) of the same molecule?
**A.** Its viability, T/C is 81.7%.

**Q.** What about the viability, T/C (second compound 1 µM, first compound 3.16 µM) of the same molecule?
**A.** Its viability, T/C is 68.6%.

**Q.** What about the viability, T/C (second compound 1 µM, first compound 10 µM) of the same molecule?
**A.** The viability, T/C was 58.8%.

**Q.** What about the viability, T/C (second compound 3.16 µM, first compound 0.0316 µM) of the same molecule?
**A.** Its viability, T/C is 90.6%.

**Q.** And the viability, T/C (second compound 3.16 µM, first compound 0.1 µM)?
**A.** Its viability, T/C is 85.9%.

**Q.** What about the viability, T/C (second compound 3.16 µM, first compound 0.316 µM) of the same molecule?
**A.** Its viability, T/C is 93.4%.

**Q.** What about the viability, T/C (second compound 3.16 µM, first compound 1 µM) of the same molecule?
**A.** Its viability, T/C is 74.8%.

**Q.** And the viability, T/C (second compound 3.16 µM, first compound 3.16 µM)?
**A.** The viability, T/C was 66.2%.

**Q.** What about the viability, T/C (second compound 3.16 µM, first compound 10 µM) of the same molecule?
**A.** Its viability, T/C is 64%.

**Q.** And the viability, T/C (second compound 10 µM, first compound 0.0316 µM)?
**A.** Its viability, T/C is 83.3%.

**Q.** And the viability, T/C (second compound 10 µM, first compound 0.1 µM)?
**A.** Its viability, T/C is 89.6%.

**Q.** What about the viability, T/C (second compound 10 µM, first compound 0.316 µM) of the same molecule?
**A.** Its viability, T/C is 75.8%.

**Q.** And the viability, T/C (second compound 10 µM, first compound 1 µM)?
**A.** The viability, T/C was 81.5%.

**Q.** And the viability, T/C (second compound 10 µM, first compound 3.16 µM)?
**A.** The viability, T/C was 73.3%.

**Q.** What about the viability, T/C (second compound 10 µM, first compound 10 µM) of the same molecule?
**A.** Its viability, T/C is 59.4%.
